# Assays:
# Assay in all cases: PRESTO-Tango GPCR screen
# Assay type in all cases: cell-based
# Conditions in all cases: 100 µM
# GPR55 = molecular target: T1, GPR55 (Homo sapiens, UniProt Q9Y2T6)
# T1 construct: purchased PRESTO-Tango GPCR kit (Roth lab / Addgene)
# In short: (§1)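 Values are luminescence fold changes over PBS control after 20 h stimulation at 100 μM final. HTLA cells had been transfected 16-24 h earlier with the relevant receptor-Tango plasmid using polyethylenimine.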
# CNR1 = molecular target: T2, CNR1 (Homo sapiens, UniProt P21554)
# T2 construct: purchased PRESTO-Tango GPCR kit (Roth lab / Addgene)
# In short: as §1
# CHRM4 = molecular target: T3, CHRM4 (Homo sapiens, UniProt P08173)
# T3 construct: purchased PRESTO-Tango GPCR kit (Roth lab / Addgene)
# In short: as §1
# S1PR4 = molecular target: T4, S1PR4 (Homo sapiens, UniProt O95977)
# T4 construct: purchased PRESTO-Tango GPCR kit (Roth lab / Addgene)
# T4 sequence (O95977 whole entry): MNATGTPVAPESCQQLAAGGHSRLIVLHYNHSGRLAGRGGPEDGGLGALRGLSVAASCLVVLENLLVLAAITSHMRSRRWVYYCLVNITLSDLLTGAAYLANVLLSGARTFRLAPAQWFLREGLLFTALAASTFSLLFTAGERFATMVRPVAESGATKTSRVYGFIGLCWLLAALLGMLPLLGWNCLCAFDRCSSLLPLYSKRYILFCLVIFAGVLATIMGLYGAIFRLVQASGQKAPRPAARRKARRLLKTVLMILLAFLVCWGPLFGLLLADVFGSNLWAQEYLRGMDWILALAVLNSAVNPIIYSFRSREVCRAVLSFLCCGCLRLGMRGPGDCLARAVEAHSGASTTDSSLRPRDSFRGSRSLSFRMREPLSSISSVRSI
# In short: as §1
# GPR63 = molecular target: T5, GPR63 (Homo sapiens, UniProt Q9BZJ6)
# T5 construct: purchased PRESTO-Tango GPCR kit (Roth lab / Addgene)
# T5 sequence (Q9BZJ6 whole entry): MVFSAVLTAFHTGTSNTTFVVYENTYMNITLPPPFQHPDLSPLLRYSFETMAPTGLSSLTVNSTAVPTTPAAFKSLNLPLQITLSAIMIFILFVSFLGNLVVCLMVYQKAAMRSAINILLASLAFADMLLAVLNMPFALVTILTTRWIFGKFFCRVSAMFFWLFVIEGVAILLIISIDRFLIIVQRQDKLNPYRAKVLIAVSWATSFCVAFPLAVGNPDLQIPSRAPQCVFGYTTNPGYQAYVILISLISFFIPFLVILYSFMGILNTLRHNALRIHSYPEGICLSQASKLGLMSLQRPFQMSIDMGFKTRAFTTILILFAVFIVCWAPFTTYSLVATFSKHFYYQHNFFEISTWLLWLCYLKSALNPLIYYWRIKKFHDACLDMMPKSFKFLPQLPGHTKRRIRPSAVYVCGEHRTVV
# In short: as §1
# DRD3 = molecular target: T6, DRD3 (Homo sapiens, UniProt P35462)
# T6 construct: purchased PRESTO-Tango GPCR kit (Roth lab / Addgene)
# In short: as §1
# ADCYAP1R1 = molecular target: T7, ADCYAP1R1 (Homo sapiens, UniProt P41586)
# T7 construct: purchased PRESTO-Tango GPCR kit (Roth lab / Addgene)
# In short: as §1
# GPR64 = molecular target: T8, GPR64 (Homo sapiens, UniProt Q8IZP9)
# T8 construct: purchased PRESTO-Tango GPCR kit (Roth lab / Addgene)
# In short: as §1
# PTGDR = molecular target: T9, PTGDR (Homo sapiens, UniProt Q13258)
# T9 construct: purchased PRESTO-Tango GPCR kit (Roth lab / Addgene)
# T9 sequence (Q13258 whole entry): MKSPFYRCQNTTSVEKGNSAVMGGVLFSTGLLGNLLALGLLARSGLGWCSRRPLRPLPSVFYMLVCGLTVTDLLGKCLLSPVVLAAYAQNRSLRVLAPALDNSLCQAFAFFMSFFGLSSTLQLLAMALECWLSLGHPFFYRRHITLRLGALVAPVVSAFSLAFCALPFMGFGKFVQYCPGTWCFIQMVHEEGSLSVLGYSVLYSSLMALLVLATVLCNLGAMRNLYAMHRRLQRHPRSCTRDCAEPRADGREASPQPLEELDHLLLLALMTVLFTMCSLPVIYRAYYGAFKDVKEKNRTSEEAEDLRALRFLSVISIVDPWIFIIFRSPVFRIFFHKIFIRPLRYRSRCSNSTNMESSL
# In short: as §1
# CXCR1 = molecular target: T10, CXCR1 (Homo sapiens, UniProt P25024)
# T10 construct: purchased PRESTO-Tango GPCR kit (Roth lab / Addgene)
# T10 sequence (P25024 whole entry): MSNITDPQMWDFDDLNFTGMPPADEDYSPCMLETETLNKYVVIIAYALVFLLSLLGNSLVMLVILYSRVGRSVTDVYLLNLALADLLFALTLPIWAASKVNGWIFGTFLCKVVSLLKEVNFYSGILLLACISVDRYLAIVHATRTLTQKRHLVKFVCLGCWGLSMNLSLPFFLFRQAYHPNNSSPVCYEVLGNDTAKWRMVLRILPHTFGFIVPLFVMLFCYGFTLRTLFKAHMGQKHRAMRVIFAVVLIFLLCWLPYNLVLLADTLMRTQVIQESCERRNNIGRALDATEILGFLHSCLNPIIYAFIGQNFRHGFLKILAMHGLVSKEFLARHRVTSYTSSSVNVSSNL
# In short: as §1
# SCTR = molecular target: T11, SCTR (Homo sapiens, UniProt P47872)
# T11 construct: purchased PRESTO-Tango GPCR kit (Roth lab / Addgene)
# T11 sequence (P47872 23-440): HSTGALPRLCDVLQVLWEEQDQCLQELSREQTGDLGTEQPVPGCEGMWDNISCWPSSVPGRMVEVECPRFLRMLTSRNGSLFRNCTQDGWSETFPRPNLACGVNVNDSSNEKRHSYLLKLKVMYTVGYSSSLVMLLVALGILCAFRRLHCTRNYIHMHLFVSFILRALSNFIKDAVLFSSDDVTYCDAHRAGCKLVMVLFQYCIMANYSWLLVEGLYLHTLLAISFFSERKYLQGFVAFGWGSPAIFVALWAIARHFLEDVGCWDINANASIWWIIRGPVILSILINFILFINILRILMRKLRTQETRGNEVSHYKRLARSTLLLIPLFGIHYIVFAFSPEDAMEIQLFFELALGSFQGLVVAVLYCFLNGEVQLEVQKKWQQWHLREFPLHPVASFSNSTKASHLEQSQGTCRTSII
# In short: as §1
# HTR1A = molecular target: T12, HTR1A (Homo sapiens, UniProt P08908)
# T12 construct: purchased PRESTO-Tango GPCR kit (Roth lab / Addgene)
# In short: as §1
# CD97 = molecular target: T13, CD97 (Homo sapiens, UniProt P48960)
# T13 construct: purchased PRESTO-Tango GPCR kit (Roth lab / Addgene)
# In short: as §1
# SSTR4 = molecular target: T14, SSTR4 (Homo sapiens, UniProt P31391)
# T14 construct: purchased PRESTO-Tango GPCR kit (Roth lab / Addgene)
# T14 sequence (P31391 whole entry): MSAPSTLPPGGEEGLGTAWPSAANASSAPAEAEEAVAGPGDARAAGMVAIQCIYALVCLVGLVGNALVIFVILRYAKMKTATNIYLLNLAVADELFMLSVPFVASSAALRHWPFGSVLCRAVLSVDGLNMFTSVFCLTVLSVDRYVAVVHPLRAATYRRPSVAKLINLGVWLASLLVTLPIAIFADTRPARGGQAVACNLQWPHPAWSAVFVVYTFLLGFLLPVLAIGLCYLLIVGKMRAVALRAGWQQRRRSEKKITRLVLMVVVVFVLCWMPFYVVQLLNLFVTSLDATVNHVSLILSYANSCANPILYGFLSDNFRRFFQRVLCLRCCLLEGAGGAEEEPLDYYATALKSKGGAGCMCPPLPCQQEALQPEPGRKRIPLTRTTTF
# In short: as §1
# MC1R = molecular target: T15, MC1R (Homo sapiens, UniProt Q01726)
# T15 construct: purchased PRESTO-Tango GPCR kit (Roth lab / Addgene)
# In short: as §1
# MLNR = molecular target: T16, MLNR (Homo sapiens, UniProt O43193)
# T16 construct: purchased PRESTO-Tango GPCR kit (Roth lab / Addgene)
# In short: as §1
# GPR84 = molecular target: T17, GPR84 (Homo sapiens, UniProt Q9NQS5)
# T17 construct: purchased PRESTO-Tango GPCR kit (Roth lab / Addgene)
# In short: as §1
# GPR142 = molecular target: T18, GPR142 (Homo sapiens, UniProt Q7Z601)
# T18 construct: purchased PRESTO-Tango GPCR kit (Roth lab / Addgene)
# T18 sequence (Q7Z601 whole entry): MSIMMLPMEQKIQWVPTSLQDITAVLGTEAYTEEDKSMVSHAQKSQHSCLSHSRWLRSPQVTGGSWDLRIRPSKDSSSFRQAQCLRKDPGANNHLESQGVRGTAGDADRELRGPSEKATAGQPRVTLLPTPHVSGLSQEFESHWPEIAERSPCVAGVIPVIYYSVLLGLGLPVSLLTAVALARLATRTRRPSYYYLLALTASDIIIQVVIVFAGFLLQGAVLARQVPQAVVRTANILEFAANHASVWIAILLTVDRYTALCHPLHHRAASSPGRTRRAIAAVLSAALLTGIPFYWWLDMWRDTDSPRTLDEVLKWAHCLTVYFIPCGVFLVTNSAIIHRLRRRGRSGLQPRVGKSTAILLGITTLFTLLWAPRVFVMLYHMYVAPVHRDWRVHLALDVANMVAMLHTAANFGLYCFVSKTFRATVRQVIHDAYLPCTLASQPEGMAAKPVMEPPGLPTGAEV
# In short: as §1
# GABBR1 = molecular target: T19, GABBR1 (Homo sapiens, UniProt Q9UBS5)
# T19 construct: purchased PRESTO-Tango GPCR kit (Roth lab / Addgene)
# In short: as §1
# CMKLR1 = molecular target: T20, CMKLR1 (Homo sapiens, UniProt Q99788)
# T20 construct: purchased PRESTO-Tango GPCR kit (Roth lab / Addgene)
# In short: as §1
# GPR85 = molecular target: T21, GPR85 (Homo sapiens, UniProt P60893)
# T21 construct: purchased PRESTO-Tango GPCR kit (Roth lab / Addgene)
# In short: as §1
# CRHR2 = molecular target: T22, CRHR2 (Homo sapiens, UniProt Q13324)
# T22 construct: purchased PRESTO-Tango GPCR kit (Roth lab / Addgene)
# T22 sequence (Q13324 whole entry): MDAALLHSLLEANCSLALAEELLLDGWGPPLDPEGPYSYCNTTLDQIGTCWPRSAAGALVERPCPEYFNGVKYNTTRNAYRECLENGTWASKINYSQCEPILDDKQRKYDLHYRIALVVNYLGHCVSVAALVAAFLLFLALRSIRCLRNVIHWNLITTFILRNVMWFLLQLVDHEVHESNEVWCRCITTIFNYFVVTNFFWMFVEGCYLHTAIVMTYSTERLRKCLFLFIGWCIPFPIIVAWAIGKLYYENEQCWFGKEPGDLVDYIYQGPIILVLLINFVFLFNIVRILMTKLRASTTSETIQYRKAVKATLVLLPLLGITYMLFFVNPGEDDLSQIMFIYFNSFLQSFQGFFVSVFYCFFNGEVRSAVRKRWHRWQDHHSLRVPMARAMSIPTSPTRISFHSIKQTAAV
# In short: as §1
# ADRA1A = molecular target: T23, ADRA1A (Homo sapiens, UniProt P35348)
# T23 construct: purchased PRESTO-Tango GPCR kit (Roth lab / Addgene)
# In short: as §1
# HTR6 = molecular target: T24, HTR6 (Homo sapiens, UniProt P50406)
# T24 construct: purchased PRESTO-Tango GPCR kit (Roth lab / Addgene)
# In short: as §1
# GPR3 = molecular target: T25, GPR3 (Homo sapiens, UniProt P46089)
# T25 construct: purchased PRESTO-Tango GPCR kit (Roth lab / Addgene)
# In short: as §1
# FFA3 = molecular target: T26, FFA3 (Homo sapiens, UniProt O14843)
# T26 construct: purchased PRESTO-Tango GPCR kit (Roth lab / Addgene)
# In short: as §1
# ADORA3 = molecular target: T27, ADORA3 (Homo sapiens, UniProt P0DMS8)
# T27 construct: purchased PRESTO-Tango GPCR kit (Roth lab / Addgene)
# In short: as §1
# TAAR2 = molecular target: T28, TAAR2 (Homo sapiens, UniProt Q9P1P5)
# T28 construct: purchased PRESTO-Tango GPCR kit (Roth lab / Addgene)
# T28 sequence (Q9P1P5 whole entry): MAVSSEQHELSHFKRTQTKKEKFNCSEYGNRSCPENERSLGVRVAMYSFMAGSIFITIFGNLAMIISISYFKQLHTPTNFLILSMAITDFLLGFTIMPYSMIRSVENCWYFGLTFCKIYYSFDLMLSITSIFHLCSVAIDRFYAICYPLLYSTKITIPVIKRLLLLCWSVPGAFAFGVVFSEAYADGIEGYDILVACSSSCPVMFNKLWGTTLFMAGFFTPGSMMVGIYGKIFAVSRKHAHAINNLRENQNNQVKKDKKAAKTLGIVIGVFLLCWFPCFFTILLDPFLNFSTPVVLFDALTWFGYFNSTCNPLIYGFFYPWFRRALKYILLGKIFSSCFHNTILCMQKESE
# In short: as §1
# S1PR5 = molecular target: T29, S1PR5 (Homo sapiens, UniProt Q9H228)
# T29 construct: purchased PRESTO-Tango GPCR kit (Roth lab / Addgene)
# T29 sequence (Q9H228 whole entry): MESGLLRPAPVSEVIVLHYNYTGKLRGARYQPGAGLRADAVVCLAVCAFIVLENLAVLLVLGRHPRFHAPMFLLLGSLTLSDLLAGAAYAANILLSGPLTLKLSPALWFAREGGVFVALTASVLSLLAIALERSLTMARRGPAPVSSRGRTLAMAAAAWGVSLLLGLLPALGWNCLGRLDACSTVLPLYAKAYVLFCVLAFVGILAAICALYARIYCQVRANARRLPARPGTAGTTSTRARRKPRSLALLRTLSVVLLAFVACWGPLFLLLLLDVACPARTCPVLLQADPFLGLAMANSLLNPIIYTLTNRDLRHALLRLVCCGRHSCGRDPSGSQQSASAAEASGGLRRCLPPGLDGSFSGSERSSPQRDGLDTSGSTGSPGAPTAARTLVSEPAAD
# In short: as §1
# HCA2 = molecular target: T30, HCA2 (Homo sapiens, UniProt Q8TDS4)
# T30 construct: purchased PRESTO-Tango GPCR kit (Roth lab / Addgene)
# T30 sequence (Q8TDS4 whole entry): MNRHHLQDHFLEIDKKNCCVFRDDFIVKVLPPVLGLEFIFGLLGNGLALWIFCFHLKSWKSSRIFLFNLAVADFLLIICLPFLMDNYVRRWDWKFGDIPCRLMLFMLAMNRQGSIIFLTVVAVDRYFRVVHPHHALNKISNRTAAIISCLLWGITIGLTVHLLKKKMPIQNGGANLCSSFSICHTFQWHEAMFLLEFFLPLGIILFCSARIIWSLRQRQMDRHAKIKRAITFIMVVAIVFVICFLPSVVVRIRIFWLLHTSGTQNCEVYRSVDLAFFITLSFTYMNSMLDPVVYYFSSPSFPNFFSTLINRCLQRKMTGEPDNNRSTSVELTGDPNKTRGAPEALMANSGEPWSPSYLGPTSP
# In short: as §1
# SSTR5 = molecular target: T31, SSTR5 (Homo sapiens, UniProt P35346)
# T31 construct: purchased PRESTO-Tango GPCR kit (Roth lab / Addgene)
# In short: as §1
# MC2R = molecular target: T32, MC2R (Homo sapiens, UniProt Q01718)
# T32 construct: purchased PRESTO-Tango GPCR kit (Roth lab / Addgene)
# In short: as §1
# MCHR2 = molecular target: T33, MCHR2 (Homo sapiens, UniProt Q969V1)
# T33 construct: purchased PRESTO-Tango GPCR kit (Roth lab / Addgene)
# In short: as §1
# NPY2R = molecular target: T34, NPY2R (Homo sapiens, UniProt P49146)
# T34 construct: purchased PRESTO-Tango GPCR kit (Roth lab / Addgene)
# In short: as §1
# P2RY11 = molecular target: T35, P2RY11 (Homo sapiens, UniProt Q96G91)
# T35 construct: purchased PRESTO-Tango GPCR kit (Roth lab / Addgene)
# In short: as §1
# TA1 = molecular target: T36, TA1 (Homo sapiens, UniProt Q96RJ0)
# T36 construct: purchased PRESTO-Tango GPCR kit (Roth lab / Addgene)
# T36 sequence (Q96RJ0 whole entry): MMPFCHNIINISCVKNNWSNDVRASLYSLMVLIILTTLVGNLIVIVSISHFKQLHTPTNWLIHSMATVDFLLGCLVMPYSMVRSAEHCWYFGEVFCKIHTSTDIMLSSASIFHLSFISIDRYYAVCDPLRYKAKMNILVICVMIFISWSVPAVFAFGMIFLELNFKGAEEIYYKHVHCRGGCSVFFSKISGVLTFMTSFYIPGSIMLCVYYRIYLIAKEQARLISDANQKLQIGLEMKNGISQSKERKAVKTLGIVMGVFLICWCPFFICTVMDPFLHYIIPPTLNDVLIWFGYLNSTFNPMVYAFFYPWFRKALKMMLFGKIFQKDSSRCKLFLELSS
# In short: as §1
Structure (SMILES),GPCR activation (heatmap value) (GPR55),GPCR activation (heatmap value) (CNR1),GPCR activation (heatmap value) (CHRM4),GPCR activation (heatmap value) (S1PR4),GPCR activation (heatmap value) (GPR63),GPCR activation (heatmap value) (DRD3),GPCR activation (heatmap value) (ADCYAP1R1),GPCR activation (heatmap value) (GPR64),GPCR activation (heatmap value) (PTGDR),GPCR activation (heatmap value) (CXCR1),GPCR activation (heatmap value) (SCTR),GPCR activation (heatmap value) (HTR1A),GPCR activation (heatmap value) (CD97),GPCR activation (heatmap value) (SSTR4),GPCR activation (heatmap value) (MC1R),GPCR activation (heatmap value) (MLNR),GPCR activation (heatmap value) (GPR84),GPCR activation (heatmap value) (GPR142),GPCR activation (heatmap value) (GABBR1),GPCR activation (heatmap value) (CMKLR1),further results
CC(C)Cc1ncc(CCCCNC(=N)N)[nH]c1=O [3-Homo],-0.519,-0.2406,0.08984,0.5734,0.374,0.04182,0.1231,0.7434,0.1368,0.5406,-0.8565,-0.3927,0.04802,0.2411,-0.8565,-0.3794,0.1656,-0.286,-1.048,-1.034,GPCR activation (heatmap value) (GPR85): -0.7717; GPCR activation (heatmap value) (CRHR2): -0.3278; GPCR activation (heatmap value) (ADRA1A): -0.07966; GPCR activation (heatmap value) (HTR6): -0.2493; GPCR activation (heatmap value) (GPR3): -1.589; GPCR activation (heatmap value) (FFA3): -0.4191; GPCR activation (heatmap value) (ADORA3): -0.404; GPCR activation (heatmap value) (TAAR2): 0.3187; GPCR activation (heatmap value) (S1PR5): -0.7802; GPCR activation (heatmap value) (HCA2): 0.4377; GPCR activation (heatmap value) (SSTR5): -0.02493; GPCR activation (heatmap value) (MC2R): -0.5707; GPCR activation (heatmap value) (MCHR2): -0.05748; GPCR activation (heatmap value) (NPY2R): 0.3401; GPCR activation (heatmap value) (P2RY11): 0.1373; GPCR activation (heatmap value) (TA1): 0.4199
CC(C)Cc1ncc(CCCNC(=N)N)[nH]c1=O [compound 3],0.5927,0.2678,0.4059,0.1012,0.05297,0.613,0.214,0.632,0.8064,0.1868,-0.3327,-0.02258,0.5,-0.01818,-1.487,-1.345,-0.1947,-0.6317,0.7353,0.8088,GPCR activation (heatmap value) (GPR85): -0.1892; GPCR activation (heatmap value) (CRHR2): -0.2766; GPCR activation (heatmap value) (ADRA1A): -0.2156; GPCR activation (heatmap value) (HTR6): 0.5944; GPCR activation (heatmap value) (GPR3): -0.8156; GPCR activation (heatmap value) (FFA3): -0.2613; GPCR activation (heatmap value) (ADORA3): -0.3342; GPCR activation (heatmap value) (TAAR2): 0.1553; GPCR activation (heatmap value) (S1PR5): 0; GPCR activation (heatmap value) (HCA2): 0.2197; GPCR activation (heatmap value) (SSTR5): -1.082; GPCR activation (heatmap value) (MC2R): 0.1631; GPCR activation (heatmap value) (MCHR2): -1.212; GPCR activation (heatmap value) (NPY2R): 0.1932; GPCR activation (heatmap value) (P2RY11): -0.4085; GPCR activation (heatmap value) (TA1): -0.5267

# Reference: article PMC11480411, “Mucosal sugars delineate pyrazine vs pyrazinone autoinducer signaling in Klebsiella oxytoca” (Nature Communications, 2024)
